Patent publication US10611748B2, “Xanthone derivatives for the treatment of hepatitis B virus disease” (Hoffmann-La Roche Inc., priority 2017, dated 2020)

Legend:
[1] = tested on: extracellular HBeAg level (surrogate marker for cccDNA) in HepDES19 cells; experiment: HepDES19 primary screen assay; format: cell-based, HBV; details: Hepatitis B virus, 120 h, 5 days compound incubation, HBeAg ELISA
Procedure, shortened: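 HepDES19 cells, Tet-withdrawn 8 days to induce pgRNA, then seeded 24 h before dosing with half-log compound dilutions (1% DMSO final) for 5 days at 37 °C. Extracellular HBeAg by ELISA, viability by CCK-8; IC50 from 4-parameter logistic fit.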

[2] = tested on: extracellular HBsAg level in HBV-infected PHH; experiment: Cryopreserved primary human hepatocytes (PHH) assay, HBsAg; format: cell-based; details: Hepatitis B virus, Hepatocyte, 216 h, read-out: HBsAg IC50
Experimental: Cryopreserved PHH (BioreclamationIVT, Lot YJM) was thawed at 37° C. and gently transferred into pre-warmed InVitroGRO HT medium (BioreclamationIVT, Cat. S03317). The mixture was centrifuged at 70 relative centrifugal force (RCF) for 3 minutes at RT, and the supernatant was discarded. Pre-warmed InVitroGRO CP medium (BioreclamationIVT, Cat # S03316) was added to the cell pellet to gently re-suspend cells. The cells were seeded at the density of 5.8×10^4 cells per well to collagen I coated 96-well plate (Gibco, Cat. A1142803) with the InVitroGRO CP medium. All plates were incubated at 37° C. with 5% CO2 and 85% humidity.
At 20 hours after plating, the medium was changed to PHH culture medium (Dulbecco's Modified Eagle Medium (DMEM)/F12 (1:1) (Gibco, Cat. 11320-033), 10% fetal bovine serum (Gibco Cat. 10099141), 100 U/mL penicillin, 100 μg/mL streptomycin (Gibco, Cat. 151401-122), 5 ng/mL human epidermal growth factor (Invitrogen Cat. PHG0311L), 20 ng/mL dexamethasone (Sigma, Cat. D4902) and 250 ng/mL human recombinant insulin (Gibco, Cat. 12585-014)). And the cells were incubated at 37° C. with 5% CO2 and 85% humidity for 4 hours. The medium was then changed to pre-warmed PHH culture medium containing 4% polyethylene glycol (PEG) MW8000 (Sigma, Cat. P1458-50ML) and 1% DMSO (Sigma, Cat. D2650). 5.8×10^6 genomic equivalents of HBV were added into the medium.
At 24 hours post-infection, the cells were gently washed with PBS and refreshed with PHH culture medium supplemented with 1% DMSO, and 0.25 mg/mL Matrix gel (Corning, Cat. 356237) at 200 μL per well. All plates were immediately placed in at 37° C. CO2 incubator.
24 hours later, serial dilutions of compounds made with DMSO were further diluted with the same culture medium (PHH culture medium supplemented with 1% DMSO and 0.25 mg/mL Matrix gel as described above) before they were added to the cells to reach desired final compound concentrations and 1% DMSO concentration. The medium containing the compounds were refreshed every three days.
At 9 days post-compound treatment, extracellular HBsAg level were measured with Chemiluminescence Immuno Assay (CLIA) kit (Autobio, HBsAg Quantitative CLIA). Extracellular HBV DNA was extracted by MagNA Pure 96 system (Roche) and then determined by quantitative PCR with the following primers and probe: HBV-Forward Primer (SEQ ID NO:2): […] (5′ to 3′); HBV-Reverse Primer (SEQ ID NO:3): […](5′ to 3′); HBV-Probe: 5′+tetramethylrhodamine+SEQ ID NO:4+black hole quencher 2-3′, wherein SEQ ID NO:4 is […].
HBsAg IC50 and HBV DNA IC50 values were derived from the dose-response curve using 4 parameter logistic curve fit method.

In the case of `O=C(O)C1CCN(c2ccc3c(=O)c4cccc(F)c4oc3c2)C1` (stereo not shown) [Example 5, 1-(5-fluoro-9-oxo-xanthen-3-yl)pyrrolidine-3-carboxylic acid], the IC50 [1] is reported as 3330 nM and the IC50 [2] is reported as 17800 nM.
`O=C(O)C1CCN(c2ccc3c(=O)c4c(Cl)ccc(Cl)c4oc3c2)C1` (stereo not shown) [Example 26, 1-(5,8-dichloro-9-oxo-xanthen-3-yl)pyrrolidine-3-carboxylic Acid] was tested, and the IC50 [1] was 2360 nM and the IC50 [2] was 1170 nM.
Work on `O=C(O)C1CCN(c2ccc3c(=O)c4cccc(Cl)c4oc3c2)C1` (stereo not shown) [Example 2, 1-(5-chloro-9-oxo-xanthen-3-yl)pyrrolidine-3-carboxylic acid] yielded an IC50 [1] of 2180 nM and an IC50 [2] of 1330 nM.
`O=C(O)[C@@H]1CCN(c2ccc3c(=O)c4cccc(Cl)c4oc3c2)C1` [Example 3, (3R)-1-(5-chloro-9-oxo-xanthen-3-yl)pyrrolidine-3-carboxylic acid] was tested, and the IC50 [1] was 1240 nM and the IC50 [2] was 1640 nM.
`O=C(O)[C@H]1CCN(c2ccc3c(=O)c4cccc(Cl)c4oc3c2)C1` [Example 4, (3S)-1-(5-chloro-9-oxo-xanthen-3-yl)pyrrolidine-3-carboxylic acid] gave an IC50 [1] of 2180 nM and an IC50 [2] of 1580 nM.
